# Measurements reported in ChEMBL document CHEMBL1148305, “5-substituted derivatives of 6-halogeno-3-((2-(S)-azetidinyl)methoxy)pyridine and 6-halogeno-3-((2-(S)-pyrrolidinyl)methoxy)pyridine with low picomolar affinity for alpha4beta2 nicotinic acetylcholine receptor and wide range of lipophilicity: potential probes for imaging with positron emission …” (J Med Chem, 2004).
# Molecular target: Neuronal acetylcholine receptor; alpha4/beta2 (Rattus norvegicus, UniProt P09483+P12390)
# Experiment: Ability of compound to compete with 50 pM of 5-[125I]iodo-A-85,380 for receptor binding sites in rat brain membranes at room temperature
# Format: cell membranes
row,SMILES,Ki [pM]
1,Fc1ccnc[n+]1-c1cc(OC[C@@H]2CCN2)cnc1Cl,8.8
2,Fc1cc(/C=C/c2cc(OC[C@@H]3CCCN3)cnc2Cl)ccn1,9.4
3,Clc1ncc(OC[C@@H]2CCN2)cc1-c1cccnc1,8.1
4,Clc1ncc(OC[C@@H]2CCN2)cc1/C=C/c1ccnc(Br)c1,5.2
5,Clc1ccc(-c2cc(OC[C@@H]3CCN3)cnc2Cl)cn1,4.5
6,Clc1ccc(OC[C@@H]2CCN2)cn1,34
7,Fc1cc(/C=C/c2cc(OC[C@@H]3CCN3)cnc2Cl)ccn1,3.1
8,Clc1ncc(OC[C@@H]2CCN2)cc1-c1ccnc(Br)c1,3.3
9,Clc1ncc(OC[C@@H]2CCCN2)cc1/C=C/c1ccnc(Br)c1,5.6
10,Fc1cc(-c2cc(OC[C@@H]3CCN3)cnc2Cl)ccn1,4.8
11,Brc1ncc(OC[C@@H]2CCN2)cc1-c1cccnc1,6.6
12,Fc1ncc(OC[C@@H]2CCN2)cc1-c1cccnc1,66
13,Clc1ncc(OC[C@@H]2CCN2)cc1/C=C/c1ccncc1,9
14,Fc1ccc(-c2cc(OC[C@@H]3CCN3)cnc2Cl)cn1,4.9
15,Ic1ncc(OC[C@@H]2CCN2)cc1-c1cccnc1,11.7
16,Fc1ncc(/C=C/c2cc(OC[C@@H]3CCN3)cnc2Cl)cc1Br,7.7
17,Fc1ccc(-c2cc(OC[C@@H]3CCCN3)cnc2Cl)cn1,17.9
18,Clc1ncc(OC[C@@H]2CCCN2)cc1-c1ccc(Br)nc1,19.5
19,Fc1ncc(-c2cc(OC[C@@H]3CCN3)cnc2Cl)cc1Br,4
20,Clc1ncc(OC[C@@H]2CCN2)cc1-c1ccc(Br)nc1,4.3
